Data as given in patent US9884874B2, “Bromodomain-inhibiting compounds and pharmaceutical composition comprising same for preventing or treating a cancer” (KAINOS MEDICINE, INC., priority 2014, dated 2018).

How the values were obtained:
[1] = system: LnCAP (human prostatic adenocarcinoma cell line); assay: Anti-proliferative activity test (CellTiter-Glo), LnCAP; type: cell-based; details: first value of LnCAP/MV4-11 cell, read-out: Cell proliferation IC50 (LnCAP)
Experimental: (§1) IC50 (uM) of the compounds obtained in Examples 1 to 18 against hematological cancer cells and solid tumors was measured for identifying anti-proliferative activities.
(§2) A human prostatic adenocarcinoma cell line, LnCAP (ATCC®, CRL-1740) and human leukemia cell line MV4-11 (ATCC®, CRL-9591) were used to test the degrees of the compounds 1 to 18 in inhibiting the cancer cell growth. The testing cell concentration was adjusted to 6.7×10^3 cells/ml with a culture medium supplemented with 10% FBS, in the temperature of 37° C., 5% CO2 and 95% humidity. Culture media and FBS were purchased from GIBCO. 90 μL of cell suspensions thus obtained was added to two 96-well plates with the final cell density of 600 cells/well, followed by addition of 10 μL of culture medium to each well of plate. The plates were incubated overnight in a humidified incubator at 37° C. with 5% CO2.
(§3) Compounds 1 to 18 were each dissolved with dimethylsulfoxide (DMSO) or phosphate buffer solution (PBS) as a stock solution, and 200× solutions of test compound (2 mM) using DMSO were prepared. Then, the DMSO solution thus obtained was diluted 20-fold with culture medium or PBS to obtain 10× working solution. 10 μL of 10× working solution (drug solution) was dispensed to each well (triplicate for each concentration). The final concentration of DMSO in culture medium was 0.5% [v/v].
(§4) Cell viability was determined using CellTiter-Glo® (CTG) assay. 100 μL of CellTiter-Glo® was added to the equal volume of the cultured cells to read luminescence in EnVision Multi Label Reader.

[2] = system: MV4-11 (human leukemia cell line); assay: Anti-proliferative activity test (CellTiter-Glo), MV4-11; type: cell-based; details: second value of LnCAP/MV4-11 cell, read-out: Cell proliferation IC50 (MV4-11)
Experimental: as §1, §2, §3, §4

OPM-2 (multiple myeloma) = assay: Anti-proliferative activity, OPM-2; type: cell-based; details: Homo sapiens, read-out: Cell proliferation, IC50
[3] = system: A375 (malignant melanoma); assay: Anti-proliferative activity, A375; type: cell-based; details: Homo sapiens, A-375, read-out: Cell proliferation, IC50
[4] = system: MOLM13 (acute myeloid Leukemia); assay: Anti-proliferative activity, MOLM13; type: cell-based; details: Homo sapiens, MOLM-13, read-out: Cell proliferation, IC50
[5] = system: HL60 (acute promyelocytic leukemia); assay: Anti-proliferative activity, HL60; type: cell-based; details: Homo sapiens, HL-60, read-out: Cell proliferation, IC50
Daudi (B lymphoma) = assay: Anti-proliferative activity, Daudi; type: cell-based; details: Homo sapiens, read-out: Cell proliferation, IC50
[6] = system: MV4-11 human leukemia xenograft; assay: Tumor growth inhibition in MV4-11 human leukemia mouse xenograft; type: in vivo, NOD/SCID mice; details: PO, 5 d ON/2 d Off × 2 (14 days)
Experimental: Tumor growth inhibition (TGI) activities of compound 1 were tested in MV4-11 human leukemia mouse xenograft.
(§5) A total of 48 NOD/SCID female mice of 6-8 weeks age and weighing approximately 18 to 22 g, purchased from HFK (Beijing HFK Bio-Technology Co. Ltd.), were used for tumor inoculation.
The MV4-11 cell line was maintained in vitro in IMDM (Iscove's modified Dulbecco's media) supplemented with 10% fetal bovine serum at 37° C. in an atmosphere of 5% CO2 in air. The tumor cells were routinely subcultured twice weekly by trypsin-EDTA treatment. The cells growing in an exponential growth phase were harvested and counted for tumor inoculation. The treatments were started when the tumor size reached approximately 150-200 mm^3.
Each mouse was inoculated subcutaneously at the right flank with MV4-11 tumor cells (1×10^7 cells) in mixture of 100 ul PBS and 100 ul of Matrigel™ for tumor development. A total of […] mice were used for each group. The amounts of treated compounds are represented in milligram (mg) of compound per kilogram (kg) of animal body weight (mg/kg, mpk). Administration route of the test compound was PO (oral) injection. […]
Tumor sizes were measured using a caliper, once every 4 days, and the tumor volume was expressed in mm^3 using Equation 1: V=0.5a×b^2 [Equation 1] […]

[7] = Body weight change in MV4-11 xenograft mice; type: in vivo, NOD/SCID mice; details: 50 and 100 mpk, PO
Experimental: as §5
Each mouse was inoculated subcutaneously at the right flank with MV4-11 tumor cells (1×10^7 cells) in mixture of 100 ul PBS and 100 ul of Matrigel™ for tumor development. A total of […] mice were used for each group. The amounts of treated compounds are represented in milligram (mg) of compound per kilogram (kg) of animal body weight (mg/kg, mpk). Administration route of the test compound was PO (oral) injection. Three groups, i.e., vehicle group (Control group), 50 mpk group (treatment at 50 mpk of compound 1 through PO injection) and 100 mpk group (treatment at 100 mpk of compound 1 through PO injection) of mice were used. The overall administration schedule was 2 cycles of treatment for 5 days (5 d ON), followed by 2 days of non-treatment (2 d OFF).

COc1ccc2c(c1)C(c1ccc(Cl)cc1)=N[C@@H](COS(C)(=O)=O)c1nnc(C)n1-2 [Compound 1, (R)-(6-(4-chlorophenyl)-8-methoxy-1-methyl-4H-benzo[f]-[1,2,4]triazolo[4,3-a][1,4]diazepin-4-yl)methyl methanesulfonate]
IC50 [1]: 470 nM
IC50 [2]: 310 nM
IC50 (OPM-2 (multiple myeloma)): 1450 nM
IC50 [3]: 5570 nM
IC50 [4]: 1520 nM
IC50 [5]: 1240 nM
IC50 (Daudi (B lymphoma)): 5090 nM
% TGI ([6]; 50 mpk): 77%
% TGI ([6]; 100 mpk): 84%
BW change (%) (in words) [7]: very low
